Source: paper PMC8341910, “Structural and biophysical insights into the mode of covalent binding of rationally designed potent BMX inhibitors” (RSC Chemical Biology, 2020)
pIC50: −log10 of the molar value. Values joined by “and” are separate entries in the source; they are usually repeats but may differ in a detail not shown here. Equal values may be shown once.

Assays:
[1] = tested on: CAOV3; assay: Multi cell line growth assay (CellTiter-Glo, 72 h); type: cell-based, human; settings: Homo sapiens, Caov-3, Ovary, ND = no growth inhibition observed
[2] = target: T1, BMX (Homo sapiens, UniProt P51813); assay: Kinetic characterization with ADP-Glo kinase assay; type: biochemical; parameters: purchased Promega Corporation (USA) V4512; settings: duplicate, mean ± S.D.
T1 sequence (P51813 1-675): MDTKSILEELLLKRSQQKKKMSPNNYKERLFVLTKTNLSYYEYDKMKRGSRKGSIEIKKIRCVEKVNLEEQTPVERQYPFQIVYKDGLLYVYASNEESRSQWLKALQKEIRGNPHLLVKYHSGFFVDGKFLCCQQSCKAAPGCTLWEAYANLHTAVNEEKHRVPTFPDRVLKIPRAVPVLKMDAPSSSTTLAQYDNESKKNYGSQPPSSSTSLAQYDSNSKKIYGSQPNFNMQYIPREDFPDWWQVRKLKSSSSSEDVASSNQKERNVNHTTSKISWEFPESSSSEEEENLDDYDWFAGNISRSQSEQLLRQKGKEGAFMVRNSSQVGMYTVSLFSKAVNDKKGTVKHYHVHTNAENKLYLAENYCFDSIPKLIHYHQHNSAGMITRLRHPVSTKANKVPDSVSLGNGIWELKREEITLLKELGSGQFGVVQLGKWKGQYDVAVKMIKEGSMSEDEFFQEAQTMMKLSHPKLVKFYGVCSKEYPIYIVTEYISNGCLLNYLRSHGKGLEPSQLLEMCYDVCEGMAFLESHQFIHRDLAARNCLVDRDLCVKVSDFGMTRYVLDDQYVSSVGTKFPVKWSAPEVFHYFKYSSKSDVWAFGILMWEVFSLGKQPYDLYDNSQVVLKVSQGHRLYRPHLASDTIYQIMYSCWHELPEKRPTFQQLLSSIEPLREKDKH
Text: The inactivation of BMX occurs in a two-step process that is governed by two parameters: the affinity of the initial non-covalent binding, KI, and the rate of the subsequent covalent bond-forming reaction with the thiol of the cysteine residue, kinact. […]. […] Thus, taking into account that all the analogues have the same Michael acceptor moiety, the enhanced activity must be a result of the structural modifications introduced in the scaffold. […]
Kinetic characterization using an ADP-GLOTM kinase assay:
The BMX enzyme system (Catalog. V4512) and the ADP-GloTM kinase assay were purchased from Promega Corporation (USA). In each kinase reaction, the concentration of BMX was set to 4.5 ng/µL. The peptide substrate Poly (4:1 Glu, Tyr) and ATP concentrations were set to 0.25 mg/mL and 50 µM, respectively. BMX was pre-incubated with different inhibitor concentrations (10-fold serial dilutions, starting at 1 mM), over different time periods (2 - 60 min), before initiating the kinase reactions. Reactions were started by adding 2.5X Poly E4Y1/ATP mixture. The reactions were carried out in a 384-well plate, stopping all at the same time with the addition of 5 µL of ADP-GloTM reagent, to consume the remaining ATP within 40 min. Then, 10 µL of kinase detection reagent was added into the wells and incubated for 30 min to produce a luminescence signal. The signal was measured using an Infinite M200 […]
observed rate constants for inhibition (kobs), at different inhibitor concentrations, were determined from the slope of a semi-logarithmic plot of inhibition versus time, and re-plotted against inhibitor concentration (nM). The experimental values were fitted into a hyperbolic function using GraphPad Prism 8 ([…]), to obtain the KI, kinact, and kinact/KI, as described previously.12 […]
(Thermo Fisher Scientific) using gold-coated glass needles. […]

[3] = tested on: LNCaP; assay: Multi cell line growth assay (CellTiter-Glo, 72 h); type: cell-based, human; settings: Homo sapiens, LNCaP, Prostate, ND = no growth inhibition observed within the concentrations tested
[4] = target: ERBB3 (Homo sapiens, UniProt P21860); assay: KINOMEscan binding; settings: read-out: % Ctrl ERBB3
Chain of ERBB3 (P21860 20-1342): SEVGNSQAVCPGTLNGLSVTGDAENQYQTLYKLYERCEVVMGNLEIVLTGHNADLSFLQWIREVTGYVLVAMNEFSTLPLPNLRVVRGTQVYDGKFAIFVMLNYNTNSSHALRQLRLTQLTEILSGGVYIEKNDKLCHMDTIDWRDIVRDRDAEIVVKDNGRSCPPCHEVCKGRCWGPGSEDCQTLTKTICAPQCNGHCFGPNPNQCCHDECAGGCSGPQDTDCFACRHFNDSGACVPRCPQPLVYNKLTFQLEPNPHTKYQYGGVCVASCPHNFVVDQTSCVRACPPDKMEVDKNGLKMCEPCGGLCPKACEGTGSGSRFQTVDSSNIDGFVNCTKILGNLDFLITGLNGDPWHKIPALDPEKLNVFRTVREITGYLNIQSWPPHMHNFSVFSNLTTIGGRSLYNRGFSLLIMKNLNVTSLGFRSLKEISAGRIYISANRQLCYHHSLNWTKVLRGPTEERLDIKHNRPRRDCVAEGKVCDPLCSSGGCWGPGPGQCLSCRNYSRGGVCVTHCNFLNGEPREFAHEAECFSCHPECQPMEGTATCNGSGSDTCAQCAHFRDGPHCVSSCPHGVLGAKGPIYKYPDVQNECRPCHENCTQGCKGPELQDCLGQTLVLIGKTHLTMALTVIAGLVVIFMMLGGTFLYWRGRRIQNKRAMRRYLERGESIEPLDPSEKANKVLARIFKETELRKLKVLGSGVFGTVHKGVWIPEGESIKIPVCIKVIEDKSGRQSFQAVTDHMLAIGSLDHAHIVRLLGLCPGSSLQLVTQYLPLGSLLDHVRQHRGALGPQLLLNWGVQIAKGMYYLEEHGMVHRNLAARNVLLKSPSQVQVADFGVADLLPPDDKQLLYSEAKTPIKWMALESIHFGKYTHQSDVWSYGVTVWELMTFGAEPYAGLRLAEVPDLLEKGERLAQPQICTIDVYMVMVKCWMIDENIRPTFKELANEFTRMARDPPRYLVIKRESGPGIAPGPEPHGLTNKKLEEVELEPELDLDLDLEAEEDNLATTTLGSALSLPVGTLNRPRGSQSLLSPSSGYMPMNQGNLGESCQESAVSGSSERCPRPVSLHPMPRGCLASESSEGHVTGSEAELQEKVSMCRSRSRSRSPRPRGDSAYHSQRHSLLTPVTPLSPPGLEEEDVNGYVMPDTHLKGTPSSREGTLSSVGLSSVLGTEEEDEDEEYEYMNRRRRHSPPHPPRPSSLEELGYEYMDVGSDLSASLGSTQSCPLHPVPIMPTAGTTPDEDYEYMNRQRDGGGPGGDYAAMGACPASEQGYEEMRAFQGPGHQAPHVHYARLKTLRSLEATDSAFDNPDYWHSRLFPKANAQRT
Procedure: (§1) Therefore, we included the whole TEC, EGFR and JAK family in our screening, and the Src family and Lkb1, which also have a cysteine within the same sequence alignment.
(§2) Kinome selectivity was performed with DiscoverX KINOMEscan™ technology.

[5] = target: PIK3CG (Homo sapiens, UniProt P48736); assay: KINOMEscan binding; settings: read-out: % Ctrl PIK3CG
Chain of PIK3CG (P48736 whole entry): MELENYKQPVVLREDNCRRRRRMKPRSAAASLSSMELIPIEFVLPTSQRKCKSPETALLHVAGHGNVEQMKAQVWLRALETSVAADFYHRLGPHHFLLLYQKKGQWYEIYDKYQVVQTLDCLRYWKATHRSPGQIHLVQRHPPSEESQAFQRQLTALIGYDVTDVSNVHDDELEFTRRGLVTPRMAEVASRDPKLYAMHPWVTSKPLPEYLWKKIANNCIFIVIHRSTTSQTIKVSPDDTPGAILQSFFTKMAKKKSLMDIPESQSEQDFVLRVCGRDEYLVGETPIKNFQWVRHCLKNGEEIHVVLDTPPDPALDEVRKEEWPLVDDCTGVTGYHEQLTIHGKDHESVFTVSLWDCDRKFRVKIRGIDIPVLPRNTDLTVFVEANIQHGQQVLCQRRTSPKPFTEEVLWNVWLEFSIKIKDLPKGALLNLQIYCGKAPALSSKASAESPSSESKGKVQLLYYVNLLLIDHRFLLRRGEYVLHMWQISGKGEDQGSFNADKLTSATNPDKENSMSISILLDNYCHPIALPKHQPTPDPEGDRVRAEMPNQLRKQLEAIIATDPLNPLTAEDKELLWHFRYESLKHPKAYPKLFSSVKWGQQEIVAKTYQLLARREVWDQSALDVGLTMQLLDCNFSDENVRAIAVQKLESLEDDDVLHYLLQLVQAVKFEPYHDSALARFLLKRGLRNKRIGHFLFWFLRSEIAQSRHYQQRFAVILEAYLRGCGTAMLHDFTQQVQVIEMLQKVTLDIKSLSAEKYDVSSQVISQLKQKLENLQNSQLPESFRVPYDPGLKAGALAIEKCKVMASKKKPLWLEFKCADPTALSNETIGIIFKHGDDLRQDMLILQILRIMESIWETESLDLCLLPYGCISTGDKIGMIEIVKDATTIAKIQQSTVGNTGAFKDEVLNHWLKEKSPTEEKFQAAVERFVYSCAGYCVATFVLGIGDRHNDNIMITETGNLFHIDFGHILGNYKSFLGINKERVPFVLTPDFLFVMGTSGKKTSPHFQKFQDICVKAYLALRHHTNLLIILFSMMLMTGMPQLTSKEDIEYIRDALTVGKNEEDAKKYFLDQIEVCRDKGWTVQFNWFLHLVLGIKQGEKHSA
Procedure: (§3) Therefore, we included the whole TEC, EGFR and JAK family in our screening, and the Src family and Lkb1, which also have a cysteine within the same sequence alignment. We also included kinases involved in upstream (Src, FAK, PI3K, mTOR, PDK1) and downstream (Akt, PAK1, TAM) regulation of BMX signaling pathway and non-receptor tyrosine protein kinase Abl.
as §2

[6] = target: T1, BMX; assay: KINOMEscan binding; settings: read-out: % Ctrl BMX
Procedure: as §1, §2

[7] = target: PIK3CA (Homo sapiens, UniProt P42336); assay: KINOMEscan binding; settings: read-out: % Ctrl PIK3CA
Chain of PIK3CA (P42336 whole entry): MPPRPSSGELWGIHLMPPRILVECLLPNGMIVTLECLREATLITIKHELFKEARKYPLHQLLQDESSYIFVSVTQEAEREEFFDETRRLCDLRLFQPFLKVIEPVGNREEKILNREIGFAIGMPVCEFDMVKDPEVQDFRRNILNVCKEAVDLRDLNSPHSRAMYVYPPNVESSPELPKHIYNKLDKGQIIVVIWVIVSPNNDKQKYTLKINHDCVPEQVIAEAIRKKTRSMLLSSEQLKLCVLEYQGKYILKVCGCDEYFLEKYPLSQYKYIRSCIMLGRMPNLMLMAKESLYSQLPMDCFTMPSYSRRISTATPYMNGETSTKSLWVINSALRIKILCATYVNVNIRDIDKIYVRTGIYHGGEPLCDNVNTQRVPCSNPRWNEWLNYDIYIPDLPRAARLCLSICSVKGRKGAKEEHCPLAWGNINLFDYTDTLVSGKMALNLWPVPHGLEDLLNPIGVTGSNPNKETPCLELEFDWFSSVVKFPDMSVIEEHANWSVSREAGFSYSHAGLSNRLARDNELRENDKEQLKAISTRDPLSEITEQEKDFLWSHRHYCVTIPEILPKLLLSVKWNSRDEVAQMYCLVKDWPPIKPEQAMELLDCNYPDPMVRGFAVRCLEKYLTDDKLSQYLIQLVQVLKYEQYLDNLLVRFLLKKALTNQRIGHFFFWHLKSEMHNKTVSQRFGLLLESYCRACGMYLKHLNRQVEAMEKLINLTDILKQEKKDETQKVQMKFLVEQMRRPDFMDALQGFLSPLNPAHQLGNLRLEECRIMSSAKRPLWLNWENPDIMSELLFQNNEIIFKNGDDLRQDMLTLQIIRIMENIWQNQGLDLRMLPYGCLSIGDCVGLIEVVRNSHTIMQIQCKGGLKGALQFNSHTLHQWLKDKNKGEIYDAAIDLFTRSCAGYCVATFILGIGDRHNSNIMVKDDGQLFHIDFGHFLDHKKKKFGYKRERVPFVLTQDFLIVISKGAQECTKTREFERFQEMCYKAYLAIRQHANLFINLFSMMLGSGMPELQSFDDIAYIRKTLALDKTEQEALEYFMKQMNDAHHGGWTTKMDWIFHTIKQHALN
Procedure: as §3, §2

[8] = target: TYK2(JH1domain-catalytic) (Homo sapiens, UniProt P29597); assay: KINOMEscan binding; settings: read-out: % Ctrl TYK2(JH1domain-catalytic)
Chain of TYK2(JH1domain-catalytic) (P29597 889-1187 limits assumed): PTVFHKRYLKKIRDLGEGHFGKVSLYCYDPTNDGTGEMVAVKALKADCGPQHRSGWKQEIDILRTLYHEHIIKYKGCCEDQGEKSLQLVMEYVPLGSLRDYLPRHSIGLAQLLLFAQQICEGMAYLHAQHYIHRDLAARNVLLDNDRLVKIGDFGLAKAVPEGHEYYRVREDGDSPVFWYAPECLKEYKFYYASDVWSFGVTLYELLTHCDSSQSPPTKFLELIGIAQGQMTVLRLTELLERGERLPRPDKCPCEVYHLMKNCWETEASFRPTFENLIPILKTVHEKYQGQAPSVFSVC
Procedure: as §3, §2

[9] = target: PTK2 (Homo sapiens, UniProt Q05397); assay: KINOMEscan binding; settings: read-out: % Ctrl PTK2
Chain of PTK2 (Q05397 whole entry, the tested form may be a part): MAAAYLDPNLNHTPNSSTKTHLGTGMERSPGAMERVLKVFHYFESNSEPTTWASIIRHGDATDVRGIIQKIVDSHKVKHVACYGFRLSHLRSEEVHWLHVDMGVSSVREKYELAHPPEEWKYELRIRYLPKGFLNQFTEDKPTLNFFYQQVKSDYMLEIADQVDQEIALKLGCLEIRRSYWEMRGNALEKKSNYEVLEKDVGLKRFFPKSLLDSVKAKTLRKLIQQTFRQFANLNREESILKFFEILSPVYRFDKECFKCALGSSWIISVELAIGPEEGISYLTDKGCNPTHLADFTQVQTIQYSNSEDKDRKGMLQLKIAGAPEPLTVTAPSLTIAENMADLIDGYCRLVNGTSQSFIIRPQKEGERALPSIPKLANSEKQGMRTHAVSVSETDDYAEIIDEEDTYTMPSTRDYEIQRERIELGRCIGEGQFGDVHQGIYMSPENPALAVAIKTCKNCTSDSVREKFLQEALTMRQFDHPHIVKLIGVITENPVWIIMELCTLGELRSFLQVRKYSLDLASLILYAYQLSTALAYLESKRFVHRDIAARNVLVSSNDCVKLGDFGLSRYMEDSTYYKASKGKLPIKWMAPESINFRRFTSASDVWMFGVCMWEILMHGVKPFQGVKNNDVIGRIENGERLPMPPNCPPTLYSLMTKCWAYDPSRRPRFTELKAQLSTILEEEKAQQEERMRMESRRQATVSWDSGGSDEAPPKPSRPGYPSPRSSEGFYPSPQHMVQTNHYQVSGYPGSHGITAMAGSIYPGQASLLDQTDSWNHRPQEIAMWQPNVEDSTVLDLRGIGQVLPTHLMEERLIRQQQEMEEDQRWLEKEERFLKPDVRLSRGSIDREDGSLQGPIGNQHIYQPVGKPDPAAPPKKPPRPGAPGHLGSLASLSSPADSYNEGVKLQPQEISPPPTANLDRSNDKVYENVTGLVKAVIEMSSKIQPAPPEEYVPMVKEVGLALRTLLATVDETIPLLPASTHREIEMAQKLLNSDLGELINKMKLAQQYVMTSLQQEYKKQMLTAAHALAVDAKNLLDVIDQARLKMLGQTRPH
Procedure: as §3, §2

[10] = target: NanoLuc®-BMX fusion vector in HEK293 cells (Homo sapiens, UniProt P51813); assay: NanoBRET TE intracellular kinase assay; type: cell-based; settings: HEK293 transiently transfected with BMX; 1 h; duplicate, mean ± S.D.; read-out: intracellular target engagement IC50
Procedure: Target Engagement Intracellular Kinase Assay:
In-cell target engagement was performed at the Reaction Biology Corporation (USA) using the NanoBRETTM technology. Very briefly, HEK296 cells, purchased from ATCC, were
with the reference compound Dasatinib, for 1 hour of incubation. Compounds were diluted 10 times with 3-fold dilution, starting at 1 µM. Curve fits were performed only when % NanoBret
determined using the GraphPad Prism 8 (USA).

| k inact [2] | GI50 [3] [nM] | SMILES | GI50 [1] [nM] | remaining binding at 1 µM [4] [%] | remaining binding at 1 µM [5] [%] | remaining binding at 1 µM [6] [%] | remaining binding at 1 µM [7] [%] | remaining binding at 1 µM [8] [%] | remaining binding at 1 µM [9] [%] | pIC50 [10] |
| --- | --- | --- | --- | --- | --- | --- | --- | --- | --- | --- |
| 0.335 min⁻¹ and 0.335 ± 0.001 min⁻¹ | 4400 | C=CC(=O)Nc1cc(-n2c(=O)ccc3cnc4cc(-c5ccc(NS(C)(=O)=O)cc5)ccc4c32)ccc1C [JS24] | 8560 | – | – | – | – | – | – | – |
| – | – | C=CC(=O)Nc1cc(C)cc(-n2c(=O)ccc3cnc4cc(-c5ccc(NS(C)(=O)=O)cc5)ccc4c32)c1 [JS25] | – | 91 | 64 | 1.3 | 79 | 100 | 93 | 7.35 |
